# pIC50: −log10 of the molar value. Values joined by “and” are separate entries in the source; they are usually repeats but may differ in a detail not shown here. Identical values can stand only once. Marks after values point to notes of the source that are not given here.
# Legend:
# OvCaR-3 ovarian = test: Antitumor activity of cytotoxic drugs alone or combined with PX-866, OvCar-3 ovarian (Table 2); type: in vivo; conditions: for Alone Growth delay days / Alone TGI % / Alone log cell kill: size 110 mm^3
# [1] = system: tumor phospho-Akt (A-549 tumor xenografts); test: Pharmacodynamic studies, tumor phospho-Akt in A-549 xenografts; type: in vivo, scid mice
# Source text: Pharmacodynamic Studies. […] Tumor Akt activity was expressed as the ratio of phospho-Ser473-Akt to total Akt.
# [2] = Glucose tolerance studies; conditions: mean ± SE of 4 mice
# Description: Glucose Tolerance Studies. Female C5781/6 mice were fasted overnight and administered a single dose of D(+) glucose (1 mg/kg) as a 0.1 g/ml solution po. […] Human recombinant insulin was administered at 0.075:g/kg ip (26) at the same time as glucose administration.
# Values are the mean±SE of 4 mice per group.
# [3] = system: A-549 human nsc lung cancer xenografts; test: Antitumor studies, PX-866 and gefitinib in A-549 xenografts; type: in vivo, scid mice; conditions: for Tumor T/C %, PX-844 4 hrs before gefitinib / Tumor T/C %: 100 mm3 tumors; for Tumor T/C %: end of dosing period
# Description: Antitumor Studies. […] When the tumors reached 100 or 600 mm3 the mice were stratified into groups of 8 animals having approximately equal mean tumor volumes and drug administration was started. […] Animals were weighed weekly and tumor diameters were measured twice weekly at right angles (d short and d long) with electronic calipers and tumor volumes calculated by the formula volume=(dshort)2×(dlong))2. When the tumor reached 2,000 mm3 or more, or became necrotic the animals were euthanized.
# In vivo antitumor studies. […] Tumors were allowed to grow to a mean volume of […] before drug treatment was started every other day for 14 doses. Antitumor activity is expressed as the % volume of the treated tumor/control tumor (T/C %) at the end of the dosing period. There were 8 mice in each group and all differences are p<0.01.
# mouse bone marrow = test: Bone marrow colony formation from treated mice; type: in vivo; conditions: C57B1/6 mice, PX-866 3 mg/kg po every other day for 15 doses
# Description: Bone Marrow Colony Formation. After sacrifice, mouse bone marrow was extracted from each femur and red blood cells lysed with 0.2% hypotonic NaCl followed by the addition of a 1.6% hypertonic NaCl. Approximately 20,000 cells were plated in 1 ml of Methocult™ GF M3434 (Stemcell Technologies Inc, Vancouver, BC, Canada) containing 1% methylcellulose in […], 15% fbs, 1% bovine serum albumin, 10:g/ml recombinant human insulin, 200:g/ml humantransferrin, […] β-mercaptoethanol, 2 mM L-glutamine, 50 ng/ml rm stem cell factor, 10 ng/ml recombinant mouse interleukin-3, 10 ng/ml recombinant human interleukin-6, and 3 units/ml recombinant erythropoietin. Cells were plated in triplicate and grown at 37/C and 5% CO2 in a humid environment for 14 days before scoring. Colonies (>40 cells/colony) or clusters (3-40 cells) were scored and growth of colony-forming unit granulocyte, erythroid, macrophage, megakaryocyte (CFU-GEMM; burst-forming units-erythroid (BFU-E), colony-forming units granulocyte macrophage (CFU-GM), assessed using standard criteria. Qualitative observations were made on background levels of single cells.
# [4] = Pharmacokinetics of PX-866 in mouse plasma; type: in vivo; conditions: intravenous, intraperitoneal and oral administration; mouse plasma (FIG. 2)
# A-549 lung = test: Antitumor activity of wortmannin analogs, A-549 lung tumor (Table 1); type: in vivo
# HT-29 colon cancer = test: Antitumor activity of PX-866 with gefitinib in HT-29 colon cancer; type: in vivo; conditions: PX-866 2 mg/kg orally 4 hours prior to gefitinib 75 mg/kg po (FIG. 13)
# p110α/p85α = molecular target: T1, p110α/p85α (Bos taurus, UniProt P32871); test: Inhibition of recombinant PtdIns-3-kinase, [32P]-ATP dependent phosphorylation of PtdIns; type: biochemical, bovine; conditions: recombinant enzyme; read-out: IC50, PtdIns-3-kinase p110α/p85α
# T1 construct: purchased Upstate (Charlottesville, Va.)
# Source text: Materials and Methods. Compounds. […] Rabbit purified anti-phosphoSer473-Akt antibody, anti-Akt antibody, antiphospho Tyr1086-EGF-receptor antibody and anti-EGFR antibody were obtained from Cell Signaling Technology (Beverly, Mass.). Human recombinant p110α/p85α, p110β/p85α, p120 (and p110*/p85α PtdIns-3-kinases were obtained from Upstate (Charlottesville, Va.). Metformin hydrochloride was obtained from Spectrum Chemical (Gardena, Calif.), pioglitazone hydrochloride and recombinant human insulin from Sigma Chemical (St. Louis).
# Measurement of PtdIns-3-kinase.
# [5] = PX-866 iv 12 mg/kg Q2D × 5 combined with taxol ip 12 mg/kg Q2D × 5
# [6] = PX-866 po 4 mg/kg Q2D × 5 combined with taxol ip 12 mg/kg Q2D × 5
# [7] = initial tumor vol 60 mm^3, 4 mg/kg/day po Q1D × 9
# [8] = initial tumor vol 60 mm^3, 12 mg/kg/day iv Q1D × 9
# [9] = initial tumor vol 65 mm^3, 6 mg/kg/day ip Q1D × 9
# [10] = initial tumor vol 65 mm^3, 9 mg/kg/day ip Q1D × 9
# T1 sequence (P32871 whole entry): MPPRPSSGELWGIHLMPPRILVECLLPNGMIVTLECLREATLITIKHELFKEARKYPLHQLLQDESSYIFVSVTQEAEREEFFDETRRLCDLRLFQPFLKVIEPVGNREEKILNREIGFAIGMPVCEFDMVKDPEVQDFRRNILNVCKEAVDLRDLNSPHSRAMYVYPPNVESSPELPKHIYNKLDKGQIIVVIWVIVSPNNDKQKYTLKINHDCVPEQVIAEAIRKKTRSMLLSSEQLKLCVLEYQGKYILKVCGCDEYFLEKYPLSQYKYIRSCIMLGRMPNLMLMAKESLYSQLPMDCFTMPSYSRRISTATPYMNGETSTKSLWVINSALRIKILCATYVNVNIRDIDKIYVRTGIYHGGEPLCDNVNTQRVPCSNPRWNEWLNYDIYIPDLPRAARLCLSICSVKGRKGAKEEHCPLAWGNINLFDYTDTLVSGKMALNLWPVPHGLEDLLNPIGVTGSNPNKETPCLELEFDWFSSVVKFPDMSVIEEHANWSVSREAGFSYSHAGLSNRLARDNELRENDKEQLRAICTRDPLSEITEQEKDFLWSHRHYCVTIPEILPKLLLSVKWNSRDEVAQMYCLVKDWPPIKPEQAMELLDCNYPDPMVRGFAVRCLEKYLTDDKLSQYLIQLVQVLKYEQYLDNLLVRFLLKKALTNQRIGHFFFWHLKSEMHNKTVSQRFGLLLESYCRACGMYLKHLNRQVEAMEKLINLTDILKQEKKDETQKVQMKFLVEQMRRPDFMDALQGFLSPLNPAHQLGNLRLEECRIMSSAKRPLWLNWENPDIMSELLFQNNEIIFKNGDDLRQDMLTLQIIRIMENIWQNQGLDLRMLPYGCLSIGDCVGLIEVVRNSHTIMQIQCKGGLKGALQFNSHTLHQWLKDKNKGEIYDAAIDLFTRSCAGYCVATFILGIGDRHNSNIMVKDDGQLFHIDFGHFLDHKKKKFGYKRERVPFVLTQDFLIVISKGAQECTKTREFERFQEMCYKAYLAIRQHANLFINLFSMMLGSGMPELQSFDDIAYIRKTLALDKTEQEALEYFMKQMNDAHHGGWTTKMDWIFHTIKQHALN
# T1 sequence (P23727 2-724 partner): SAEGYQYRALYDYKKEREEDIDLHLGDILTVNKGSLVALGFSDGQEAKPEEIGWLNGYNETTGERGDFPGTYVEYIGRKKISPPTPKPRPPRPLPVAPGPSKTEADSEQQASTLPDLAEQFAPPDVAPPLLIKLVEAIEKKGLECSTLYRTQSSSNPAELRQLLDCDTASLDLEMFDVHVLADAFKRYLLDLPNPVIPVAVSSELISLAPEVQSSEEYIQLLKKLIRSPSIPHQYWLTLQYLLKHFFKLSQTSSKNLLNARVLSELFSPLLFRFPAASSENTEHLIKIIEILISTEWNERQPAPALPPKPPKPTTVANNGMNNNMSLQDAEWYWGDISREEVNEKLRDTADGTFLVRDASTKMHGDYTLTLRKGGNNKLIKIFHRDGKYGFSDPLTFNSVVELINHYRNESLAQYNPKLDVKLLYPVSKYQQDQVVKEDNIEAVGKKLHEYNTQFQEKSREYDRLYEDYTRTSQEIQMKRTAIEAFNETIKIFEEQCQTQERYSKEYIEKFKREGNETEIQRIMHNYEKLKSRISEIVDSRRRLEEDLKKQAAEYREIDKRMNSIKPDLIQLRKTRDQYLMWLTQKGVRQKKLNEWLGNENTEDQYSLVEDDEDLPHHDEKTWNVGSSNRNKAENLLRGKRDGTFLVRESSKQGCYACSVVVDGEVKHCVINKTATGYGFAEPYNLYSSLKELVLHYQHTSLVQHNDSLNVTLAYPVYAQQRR
compound,measurement,setting,value
C=CCN(/C=C1/C(=O)O[C@H](COC)[C@@]2(C)C1=C(O)C(=O)C1=C2[C@H](OC(C)=O)C[C@]2(C)C(=O)CC[C@@H]12)CC=C [PX-866],Combined Growth delay days,OvCaR-3 ovarian; [5],20 days
same,Combined TGI %,OvCaR-3 ovarian; [5],83%
same,Combined log cell kill,OvCaR-3 ovarian; [5],1.5
same,Combined Growth delay days,OvCaR-3 ovarian; [6],34 days
same,Combined TGI %,OvCaR-3 ovarian; [6],87%
same,Combined log cell kill,OvCaR-3 ovarian; [6],2.6
same,Alone Growth delay days,OvCaR-3 ovarian; PX-866 iv 12 mg/kg Q2D × 5,12 days
same,Alone TGI %,OvCaR-3 ovarian; PX-866 iv 12 mg/kg Q2D × 5,58%
same,Alone log cell kill,OvCaR-3 ovarian; PX-866 iv 12 mg/kg Q2D × 5,0.9
same,Alone Growth delay days,OvCaR-3 ovarian; PX-866 po 4 mg/kg Q2D × 5,11 days
same,Alone TGI %,OvCaR-3 ovarian; PX-866 po 4 mg/kg Q2D × 5,53%
same,Alone log cell kill,OvCaR-3 ovarian; PX-866 po 4 mg/kg Q2D × 5,0.82
same,inhibition at 12 mg/kg,"[1]; Mus musculus, A549, iv, 120 h, read-out: inhibition of tumor phospho-Akt",51%
same,inhibition at 3 mg/kg,"[1]; Mus musculus, A549, po, 120 h, read-out: inhibition of tumor phospho-Akt",48%
same,effect upon tumor phospho-Akt,[1]; combination of gefitinib and PX-866,inhibited both
same,plasma glucose AUC0-180 min,"[2]; PX-866 3 mg/kg po QOD × 20, glucose 24 hours after the last dose",520 ± 14^a mg · min · ml^−1
same,plasma glucose AUC0-180 min,"[2]; PX-866 10 mg/kg po single dose, glucose 4 hours later, no other drug",533 ± 17^a mg · min · ml^−1
same,"Tumor T/C %, PX-844 4 hrs before gefitinib","[3]; PX-866 IV 4 mg/kg QOD × 14, 4 hr before gefitinib 75 mg/kg po",20.5%
same,Tumor T/C %,[3]; PX-866 IV 4 mg/kg QOD × 14 alone,65.3%
same,"Tumor T/C %, PX-844 4 hrs before gefitinib","[3]; PX-866 IV 9 mg/kg QOD × 14, 4 hr before gefitinib 75 mg/kg po",22% and 22.3%
same,Tumor T/C %,"[3]; PX-866 IV 9 mg/kg QOD × 14 alone, 9 mg/kg",31% and 31.5%
same,"Tumor T/C %, PX-844 4 hrs before gefitinib","[3]; PX-866 PO 1 mg/kg QOD × 14, 4 hr before gefitinib 75 mg/kg po",40.8%
same,Tumor T/C %,[3]; PX-866 PO 1 mg/kg QOD × 14 alone,54.8%
same,"Tumor T/C %, PX-844 4 hrs before gefitinib","[3]; PX-866 PO 2.5 mg/kg QOD × 14, 4 hr before gefitinib 75 mg/kg po",18% and 18.1%
same,Tumor T/C %,"[3]; PX-866 PO 2.5 mg/kg QOD × 14 alone, 2.5 mg/kg",41% and 40.8%
same,"combination antitumor activity, large tumors","[3]; PX-866 with gefitinib, 600 mm3 A-549 tumor xenografts (FIG. 7B)",Increased combination antitumor activity
same,tumor T/Cs,"[3]; administered long term, single agent (discussion)",around 50%
same,activity of combination with gefitinib by timing,"[3]; alternating day schedule, preliminary studies, data not shown",more active when administered 4 hr before rather than 24 hr after gefitinib
same,"erythroid lineage CFU-GEMM, BFU-E or CFU-E",mouse bone marrow,no significant change
same,myeloid CFU-GM,"mouse bone marrow; ±S.E., n=4","168±59 colonies per 60,000 bone marrow cells plated"
same,half-life,[4],~16 h
same,Growth Delay,A-549 lung; [7],6 days
same,Log10 cell kill,A-549 lung; [7],0.9
same,T/C % (optimal test/control),"A-549 lung; initial tumor vol 60 mm^3, 4 mg/kg/day po Q1D × 9, day 21",47 (21) %
same,Growth Delay,A-549 lung; [8],5 days
same,Log10 cell kill,A-549 lung; [8],0.7
same,T/C % (optimal test/control),"A-549 lung; initial tumor vol 60 mm^3, 12 mg/kg/day iv Q1D × 9, day 21",45 (21) %
same,Growth Delay,A-549 lung; [9],4 days
same,Log10 cell kill,A-549 lung; [9],0.2
same,T/C % (optimal test/control),"A-549 lung; initial tumor vol 65 mm^3, 6 mg/kg/day ip Q1D × 9, day 32",62 (32) %
same,Growth Delay,A-549 lung; [10],8 days
same,Log10 cell kill,A-549 lung; [10],0.4
same,T/C % (optimal test/control),"A-549 lung; initial tumor vol 65 mm^3, 9 mg/kg/day ip Q1D × 9, day 32",26 (32) %
same,antitumor effect with gefitinib,HT-29 colon cancer,increased the antitumor effect of gefitinib
same,pIC50,p110α/p85α,8.26

# — patent publication US7858657B2 (Proix Pharmaceutical Corp., priority 2004, dated 2010)
